Assay results from publication PMC11432405, “Development of Novel Alaninamide Derivatives with Anticonvulsant Activity and Favorable Safety Profiles in Animal Models” (International Journal of Molecular Sciences, 2024).
Where two headings read alike, the source gives them in different places.

What was measured:
human recombinant MAO-B = biological target: T1, human recombinant MAO-B (Homo sapiens, UniProt P27338); test: fluorometric monoamine oxidase B inhibition assay; type: biochemical; conditions: for % inhibition MAO-B (1 µM): mean of two independent experiments; for inhibition at 1 µM: read-out: % inhibition MAO-B (1 µM), mean of two independent experiments
T1 construct: purchased Sigma Aldrich
T1 sequence (P27338 1-520): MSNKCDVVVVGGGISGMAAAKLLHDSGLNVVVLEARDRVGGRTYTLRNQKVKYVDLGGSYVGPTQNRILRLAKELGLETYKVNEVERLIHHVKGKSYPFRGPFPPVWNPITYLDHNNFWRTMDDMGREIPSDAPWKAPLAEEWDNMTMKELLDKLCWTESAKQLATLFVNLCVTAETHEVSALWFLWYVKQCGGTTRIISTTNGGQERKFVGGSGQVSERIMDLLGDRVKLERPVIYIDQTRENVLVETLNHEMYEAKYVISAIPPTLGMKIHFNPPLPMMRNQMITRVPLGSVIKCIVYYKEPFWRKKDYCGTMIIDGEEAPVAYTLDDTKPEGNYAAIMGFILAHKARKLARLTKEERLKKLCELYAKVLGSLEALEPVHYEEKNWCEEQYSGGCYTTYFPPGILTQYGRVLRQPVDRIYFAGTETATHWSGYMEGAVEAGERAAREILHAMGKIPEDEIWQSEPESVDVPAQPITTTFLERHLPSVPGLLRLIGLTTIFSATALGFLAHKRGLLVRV

[1] = system: maximal electroshock (MES) seizures; test: maximal electroshock seizure (MES) test; type: in vivo, mice; conditions: mice i.p.; for responders at 100 mg/kg / ED50: Mus musculus, ip; for ED50: TPE 0.5 h, 95% confidence interval in parentheses
Description: Epilepsy is a multifaceted disorder with often unclear etiology, making it challenging to pinpoint a specific receptor or transporter as the definitive target. Consequently, the discovery of ASMs deviates from the traditional drug development pathway, which typically involves designing a new molecule, docking it with a specific biological target, and performing chemical synthesis, followed by in vitro assays. Instead, numerous animal seizure models, which mirror various types of human epileptic seizures, are initially employed in the process of new ASM discovery. This approach has been instrumental in the identification and introduction into clinical practice of all currently used ASMs and continues to be a cornerstone in the preclinical development of new anticonvulsants. The primary justification for prioritizing in vivo screening over in vitro binding and functional studies is the complex and often not fully elucidated mechanisms of action of known ASMs. This approach also facilitates the discovery of compounds with novel, previously undefined pharmacodynamic properties. In light of this, we evaluated all compounds obtained in the current studies using the MES test, which remains one of the most valuable preclinical screening models for tonic-clonic seizures, as well as partial convulsions with or without secondary generalization in humans. This test allows for a comprehensive assessment of the anticonvulsant efficacy of new ASM candidates and is considered highly relevant for predicting their therapeutic efficacy in human epilepsy. The MES test was carried out in mice following the intraperitoneal (i.p.) administration of a screening dose of 100 mg/kg in a group consisting of four animals. The efficacy of the compounds synthesized was evaluated at 0.5 h pretreatment time.
Fresh solutions were prepared daily for each experimentation session.
Each group consisted of six animals.

6 Hz (32 mA) seizures [2] = test: 6 Hz (32 mA) psychomotor seizure model; conditions: for protection (efficacy) in the 6 Hz (32 mA) screening / 6 Hz (32 mA) test: number of mice protected / number of mice tested: mice i.p.; for protection (efficacy) in the 6 Hz (32 mA) screening: 100 mg/kg, four mice; for protection (efficacy) in the 6 Hz (32 mA) screening / ED50 / responders at 100 mg/kg: 0.5 h; for 6 Hz (32 mA) test: number of mice protected / number of mice tested: dose of 100 mg/kg, pretreatment time 0.5 h; for ED50 / responders at 100 mg/kg: Mus musculus, ip; for ED50: read-out: ED50 6 Hz (32 mA), mice i.p., TPE 0.5 h, 95% confidence interval in parentheses; for responders at 100 mg/kg: read-out: protection (efficacy) in the 6 Hz (32 mA) screening;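 as to all read-outs here: adult male albino Swiss CD-1 mice, each used once, with compounds suspended in 1% Tween 80 in water as vehicle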
[3] = rotarod test (acute neurological toxicity, motor coordination); type: in vivo; conditions: male, CD-1 (albino Swiss), mouse, in vivo, ip, mice i.p.
Description: The protective indexes (PIs) were then calculated as the ratio of TD50 to ED50 (PI = TD50/ED50), providing an assessment of the therapeutic window for each compound.

[4] = system: maximal electroshock (MES) seizures; conditions: cited from earlier work
6 Hz (32 mA) seizures [5] = conditions: cited from earlier work
6 Hz (44 mA) seizures = conditions: cited from earlier work
[6] = dose of 100 mg/kg, pretreatment time 0.5 h
[7] = 100 mg/kg, 0.5 h, four mice, read-out: protection (efficacy) in the MES screening
[8] = dose of 100 mg/kg, pretreatment time 0.5 h, read-out: MES test: number of mice protected / number of mice tested (converted)

SMILES | inhibition at 1 µM (human recombinant MAO-B) | melting point | responders at 100 mg/kg [1, 7] | responders at 100 mg/kg [1, 8] | responders at 100 mg/kg (6 Hz (32 mA) seizures [2]) | other results
CC(C(=O)NCc1ccc(OCc2ccccc2F)cc1)N1C(=O)CCC1=O (stereo not drawn) [Compound 6, 2-(2,5-dioxopyrrolidin-1-yl)-N-(4-((2-fluorobenzyl)oxy)benzyl)propanamide] |  |  |  |  |  | % inhibition MAO-B (1 µM) (human recombinant MAO-B): 0%; protection (efficacy) in the MES screening ([1]; 100 mg/kg, 0.5 h, four mice): 100%; MES test: number of mice protected / number of mice tested [1, 6]: 4/4; protection (efficacy) in the 6 Hz (32 mA) screening (6 Hz (32 mA) seizures [2]): 100%; 6 Hz (32 mA) test: number of mice protected / number of mice tested (6 Hz (32 mA) seizures [2]): 4/4
CC(C(=O)NCc1ccc(OCc2ccc(F)cc2)cc1)N1C(=O)CCC1=O (stereo not drawn) [Compound 8, 2-(2,5-dioxopyrrolidin-1-yl)-N-(4-((4-fluorobenzyl)oxy)benzyl)propanamide] |  |  |  |  |  | % inhibition MAO-B (1 µM) (human recombinant MAO-B): 0%; protection (efficacy) in the MES screening ([1]; 100 mg/kg, 0.5 h, four mice): 50%; protection (efficacy) in the 6 Hz (32 mA) screening (6 Hz (32 mA) seizures [2]): 50%
CC(C(=O)NCc1ccc(OCc2ccc(Cl)cc2)cc1)N1C(=O)CCC1=O (stereo not drawn) [Compound 11, N-(4-((4-chlorobenzyl)oxy)benzyl)-2-(2,5-dioxopyrrolidin-1-yl)propanamide] |  |  |  |  |  | % inhibition MAO-B (1 µM) (human recombinant MAO-B): 0%; protection (efficacy) in the MES screening ([1]; 100 mg/kg, 0.5 h, four mice): ≤ 25%; MES test: number of mice protected / number of mice tested [1, 6]: 0/4; protection (efficacy) in the 6 Hz (32 mA) screening (6 Hz (32 mA) seizures [2]): 25%; 6 Hz (32 mA) test: number of mice protected / number of mice tested (6 Hz (32 mA) seizures [2]): 1/4
CC(C(=O)NCc1ccc(OCc2ccccc2C(F)(F)F)cc1)N1C(=O)CCC1=O (stereo not drawn) [Compound 12, 2-(2,5-dioxopyrrolidin-1-yl)-N-(4-((2-(trifluoromethyl)benzyl)oxy)benzyl)propanamide] | 0% | 122.9 to 123.4 °C | 100% | 100% | 75% | ED50 [1]: 46.2 mg/kg; TD50 at 0.5 h [3]: > 300 mg/kg; ED50 (6 Hz (32 mA) seizures [2]): 52.7 mg/kg
CC(C(=O)NCc1ccc(OCc2cccc(C(F)(F)F)c2)cc1)N1C(=O)CCC1=O (stereo not drawn) [Compound 13, 2-(2,5-dioxopyrrolidin-1-yl)-N-(4-((3-(trifluoromethyl)benzyl)oxy)benzyl)propanamide] | 0% |  | 100% | 100% | 100% | ED50 [1]: 69.7 mg/kg; TD50 at 0.5 h [3]: > 300 mg/kg; ED50 (6 Hz (32 mA) seizures [2]): 67.9 mg/kg
CC(C(=O)NCc1ccc(OCc2ccc(C(F)(F)F)cc2)cc1)N1C(=O)CCC1=O (stereo not drawn) [Compound 14, 2-(2,5-dioxopyrrolidin-1-yl)-N-(4-((4-(trifluoromethyl)benzyl)oxy)benzyl)propanamide] | 0% |  | 50% | 50% | 50% | 
CC(C(=O)NCc1ccc(OCc2ccccc2OC(F)(F)F)cc1)N1C(=O)CCC1=O (stereo not drawn) [Compound 15, 2-(2,5-dioxopyrrolidin-1-yl)-N-(4-((2-(trifluoromethoxy)benzyl)oxy)benzyl)propanamide] | 0% | 110.5 to 111.2 °C | 50% | 50% | 25% | 
CC(C(=O)NCc1ccc(OCc2cccc(OC(F)(F)F)c2)cc1)N1C(=O)CCC1=O (stereo not drawn) [Compound 16, 2-(2,5-dioxopyrrolidin-1-yl)-N-(4-((3-(trifluoromethoxy)benzyl)oxy)benzyl)propanamide] | 31% | 112.2 to 112.9 °C | 100% | 100% | 50% | ED50 [1]: 40.5 mg/kg; TD50 at 0.5 h [3]: > 300 mg/kg; ED50 (6 Hz (32 mA) seizures [2]): 63 mg/kg
Cc1ccccc1COc1ccc(CNC(=O)C(C)N2C(=O)CCC2=O)cc1 (stereo not drawn) [Compound 18, 2-(2,5-dioxopyrrolidin-1-yl)-N-(4-((2-methylbenzyl)oxy)benzyl)propanamide] | 0% | 126.1 to 126.8 °C | 75% | 75% | 75% | ED50 [1]: 89.2 mg/kg; TD50 at 0.5 h [3]: > 300 mg/kg; ED50 (6 Hz (32 mA) seizures [2]): 57.7 mg/kg
Cc1cccc(COc2ccc(CNC(=O)C(C)N3C(=O)CCC3=O)cc2)c1 (stereo not drawn) [Compound 19, 2-(2,5-dioxopyrrolidin-1-yl)-N-(4-((3-methylbenzyl)oxy)benzyl)propanamide] | 0% |  | ≤ 25% | 25% | 25% | 
Cc1ccc(COc2ccc(CNC(=O)C(C)N3C(=O)CCC3=O)cc2)cc1 (stereo not drawn) [Compound 20, 2-(2,5-dioxopyrrolidin-1-yl)-N-(4-((4-methylbenzyl)oxy)benzyl)propanamide] | 0% |  | ≤ 25% | 0% |  | 
CC(C)(C(=O)NCc1ccc(OCc2ccccc2)cc1)N1C(=O)CCC1=O [Compound 21, N-(4-(benzyloxy)benzyl)-2-(2,5-dioxopyrrolidin-1-yl)-2-methylpropanamide] | 0% | 170.3 to 171.2 °C | ≤ 25% | 25% |  | 
CC(C(=O)NCc1cccc(OCc2ccccc2)c1)N1C(=O)CCC1=O (stereo not drawn) [Compound 22, N-(3-(benzyloxy)benzyl)-2-(2,5-dioxopyrrolidin-1-yl)propanamide] | 0% | 105.3 to 106.1 °C | ≤ 25% | 25% |  | 
CC(C(=O)NCc1ccccc1OCc1ccccc1)N1C(=O)CCC1=O (stereo not drawn) [Compound 23, N-(2-(benzyloxy)benzyl)-2-(2,5-dioxopyrrolidin-1-yl)propanamide] | 0% |  | ≤ 25% | 25% |  | 
CC(C(=O)NCc1ccc(OCc2ccccc2)cc1)N1CCCC1=O (stereo not drawn) [Compound 36, N-(4-(benzyloxy)benzyl)-2-(2-oxopyrrolidin-1-yl)propanamide] | 0% | 110.5 to 110.9 °C |  | 100% | 25% | 
CC(C(=O)NCc1ccc(OCc2ccccc2C(F)(F)F)cc1)N1CCCC1=O (stereo not drawn) [Compound 37, 2-(2-oxopyrrolidin-1-yl)-N-(4-((2-(trifluoromethyl)benzyl)oxy)benzyl)propanamide] | 0% | 121.8 to 122.5 °C |  | 100% | 50% | 
CC(C(=O)NCc1ccc(OCc2cccc(C(F)(F)F)c2)cc1)N1CCCC1=O (stereo not drawn) [Compound 38, 2-(2-oxopyrrolidin-1-yl)-N-(4-((3-(trifluoromethyl)benzyl)oxy)benzyl)propanamide] | 2% | 123.5 to 123.8 °C |  | 100% | 75% | ED50 [1]: 54.8 mg/kg; TD50 at 0.5 h [3]: > 300 mg/kg; ED50 (6 Hz (32 mA) seizures [2]): 65.3 mg/kg
COC[C@@H](NC(C)=O)C(=O)NCc1ccccc1 [LCS, lacosamide] |  |  |  |  |  | PI (TD50/ED50) MES ([4]; TD50 rotarod / ED50 MES): 5.0; ED50 MES ([4]; mice i.p., TPE 0.5 h (LEV 1.0 h), same conditions): 9.2 (8.5–10.0) mg/kg; PI (TD50/ED50) 6 Hz (6 Hz (32 mA) seizures [5]; TD50 rotarod / ED50 6 Hz (32 mA)): 8.8; ED50 6 Hz (32 mA) (6 Hz (32 mA) seizures [5]; mouse, in vivo, ip): 5.3 (3.5–7.8) mg/kg; PI (TD50/ED50) 6 Hz (44 mA) (6 Hz (44 mA) seizures; TD50 rotarod / ED50 6 Hz (44 mA)): 6.7; ED50 6 Hz (44 mA) (6 Hz (44 mA) seizures; mice i.p., TPE 0.5 h (LEV 1.0 h)): 6.9 (5.4–8.6) mg/kg
C[C@H](NCc1ccc(OCc2cccc(F)c2)cc1)C(N)=O [SAF, safinamide] |  |  |  |  |  | ED50 in the MES model ([4]; mice): 4.1 mg/kg
